Reference: publication PMC3852005, “Crystal Structures of the Human G3BP1 NTF2-Like Domain Visualize FxFG Nup Repeat Specificity” (PLoS ONE, 2013)
Where no end group is shown, it is not given here.

What was measured:
[1] = target: T1, human G3BP1 NTF2-like domain (G3BP1 1–139) (Homo sapiens, UniProt Q13283); assay: ITC, Nup peptide binding to G3BP1 NTF2-like domain (1–139); settings: 0.1 M NaCl and 0.1 M HEPES, pH 8, 25°C, repeated three times; for heat changes on titration (ITC): titration of peptide into G3BP1 1–139, ITC200, aliquots of 2 µL peptide (5.2 mM)
T1 construct: His6 (thrombin-cleavable) (N, cleaved yes); made in house; host or cells: Escherichia coli BL21(DE3)
T1 sequence (Q13283 1-139): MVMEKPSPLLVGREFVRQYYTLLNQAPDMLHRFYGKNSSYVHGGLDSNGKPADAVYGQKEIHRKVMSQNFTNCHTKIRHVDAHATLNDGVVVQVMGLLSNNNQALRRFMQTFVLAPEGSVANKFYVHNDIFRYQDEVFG
Protocol: (§1) The three synthetic peptides, GQSPGFGQGGSV (referred to as FG), DSGGLFGSK (GLFG) and DSGFSFGSK (FxFG), were obtained as more than 98% pure lyophilized chloride salts from Caslo Laboratory ApS, Denmark.
(§2) ITC measurements for the wild type NTF2-like domain were performed with an ITC200 titration calorimeter (MicroCal). Data analysis was done using the Origin software. Protein samples were dialyzed against 0.1 M NaCl and 0.1 M HEPES, pH 8, and passed through 0.22 µm centrifugal filter units (Millipore) before the experiments. Peptides were solubilized in the dialysis buffer and the pH adjusted before filtration. In each experiment, aliquots of 2 µL peptide (5.2 mM) were injected into the sample cell every 180 seconds at 25°C. Background measurements were performed with buffer injected into the protein solution and peptides injected into the buffer solution. The concentrations of the peptides were determined by amino acid analysis (Department of Systems Biology, DTU, Denmark). Experiments were repeated three times and the results given as mean ± standard deviation.

[2] = target: T2, G3BP2a NTF2-like domain (G3BP2a 1–139) (Homo sapiens, UniProt Q9UN86); assay: ITC, Nup peptide binding to G3BP2a NTF2-like domain (1–139); settings: 0.1 M NaCl and 0.1 M HEPES, pH 8, 25°C, repeated three times; for heat changes on titration (ITC): titration of peptide into G3BP2a 1–139 (data not shown), ITC200, aliquots of 2 µL peptide (5.2 mM)
T2 construct: His6 (thrombin-cleavable) (N, cleaved yes); made in house; host or cells: Escherichia coli BL21(DE3)
T2 sequence (Q9UN86 1-139): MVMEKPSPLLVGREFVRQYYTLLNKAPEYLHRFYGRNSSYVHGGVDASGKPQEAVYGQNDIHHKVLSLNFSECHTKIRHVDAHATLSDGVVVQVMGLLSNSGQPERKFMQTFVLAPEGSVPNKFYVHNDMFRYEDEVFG
Protocol: as §1, §2

[3] = target: T3, G3BP1 1–139 Phe15Ala mutant (Homo sapiens, UniProt Q13283, F15A); assay: ITC, FxFG peptide binding to G3BP1 1–139 Phe15Ala mutant; settings: ITC (VP-ITC), 0.1 M NaCl and 0.1 M HEPES, pH 8, 20°C, aliquots of 15 µL peptide (4.1 mM) every 360 seconds, single experiment
T3 construct: The expression vector for the G3BP1 1–139 Phe15Ala mutant was produced by GenScript Inc. (USA); His6 (thrombin-cleavable) (N, cleaved yes); made in house; host or cells: Escherichia coli BL21(DE3)
T3 sequence (Q13283 1-139 F15A): as the sequence (Q13283 1-139) above, with F15A counted along it
Protocol: as §1
Data for the Phe15Ala G3BP1 mutant were collected in a single experiment on a VP-ITC (MicroCal) instrument using buffer conditions as for the wildtype. Aliquots of 15 µL peptide (4.1 mM) were injected into the protein sample every 360 seconds at 20°C.

FxFG Nup repeat peptide = target: T4, FxFG Nup repeat peptide (also: chloride salt); assay: ITC
T4 chain: DSGFSFGSK

Molecule: GQSPGFGQGGSV [synthetic nucleoporin FG repeat peptide, more than 98% pure, from Caslo Laboratory]
- heat changes on titration (ITC) [1]: did not result in significant heat changes
- heat changes on titration (ITC) [2]: did not result in significant heat changes

Molecule: DSGFSFGSK [FxFG, DSGFSFGSK]
- Kd ([1]; ITC (ITC200), G3BP1 1–139, aliquots of 2 µL peptide (5.2 mM) every 180 seconds, one-binding-site per chain model, mean ± standard deviation): 115 ± 3 µM
- Kd ([2]; ITC (ITC200), G3BP2a NTF2-like domain, aliquots of 2 µL peptide (5.2 mM) every 180 seconds, mean ± standard deviation, data not shown): 114 ± 2 µM
- Kd [3]: 670 µM

Molecule: DSGGLFGSK [synthetic nucleoporin GLFG repeat peptide, more than 98% pure, from Caslo Laboratory]
- heat changes on titration (ITC) [1]: did not result in significant heat changes
- heat changes on titration (ITC) [2]: did not result in significant heat changes

B1: G3BP2a NTF2-like domain 1-139 (protein)
chain: T2 sequence (Q9UN86 1-139)
- Kd (FxFG Nup repeat peptide): 114 µM
